We go through seven compounds from patent US10208351B2, “RNY-derived small RNAs as biomarkers for atherosclerosis-related disorders” (INSTITUT NATIONAL DE LA SANTE ET DE LA RECHERCHE MEDICALE …, priority 2013, dated 2019).

Data set [1] has as its system potential s-RNYs-target mRNAs. Briefly: Quantitative RT-PCR of potential s-RNYs-target mRNAs in PA-treated BMDMs. The format is cell-based, mouse. The following applies: of 32 mRNAs (about 62%), FIG. 11. On the procedure: FIG. 11: Quantitative RT-PCR analysis of the potential s-RNYs-target mRNAs in BMDMs transfected with siAgo2, 2′-OMe-RNA antisense oligonucleotides (AS) to s-RNYs, or control. BMDMs were left unstimulated (black column) or stimulated with 0.25 mM of PA for 18 hr, and total RNA was isolated and analyzed. Data were normalized by U2 snRNA and are presented as mean and s.d. (n=6).
BMDMs and NIH-3T3 cells (ATCC) were transiently transfected for 48 hr with Lipofectamine 2000 (Invitrogen) according to the manufacturer's instructions. siRNAs were transfected at the final concentration of 24 nM, while 2′-OMe-RNA antisense oligonucleotides to s-RNYs (Eurogentec) were transfected at the final concentration of 100 nM. […]
RNA expression by quantitative RT-PCR was carried out by using standard procedures. […] For s-RNYs detection by quantitative RT-PCR a stem-loop quantitative RT-PCR method was used according to Chen et al. (Chen, C., et al. (2005). Nucleic acids research 33, e179). […] This method allows the detection of the s-RNYs derived from only the 5′ end of the precursor by quantitative RT-PCR analysis, namely the s-RNY1-5p and s-RNY3-5p from mouse and s-RNY1-5p, s-RNY3-5p, and s-RNY4-5p from human. Quantitative RT-PCRs using Sybr Green and TaqMan (Invitrogen) for cel-miR-39 were performed on a StepONE system (Applied Biosystem). […]

In data set [2] the test system is bone marrow-derived macrophages (BMDMs). The experiment in a line: s-RNY expression in stimulated BMDMs, stem-loop quantitative RT-PCR. It is filed as cell-based, mouse. As to conditions: for s-RNY expression: stimulus given alone.
The test system of data set [3] is BMDMs. Briefly: Quantitative RT-PCR of s-RNYs from the medium of BMDMs. It is filed as cell-based, mouse. The following applies: 0.25 mM PA 18 hr, FIG. 14B. How it is done: FIG. 14: (A) Quantitative RT-PCR analysis of the indicated s-RNYs in BMDMs incubated with 0.25 mM of PA the indicated time. The data were normalized by U2 snRNA. (B) Quantitative RT-PCR analysis of the indicated s-RNYs from the medium of BMDMs. Cells were left unstimulated or incubated with 0.25 mM PA for 18 hr. Data were normalized by using the synthetic non-mammalian cel-miR-39, which was added to the samples before the RNA extraction. Data are presented as mean and s.d. (n=8).
RNA expression by quantitative RT-PCR was carried out by using standard procedures. Briefly, for mRNA, total RNA was isolated from cells using Trizol and cDNA was synthesized with a random hexonucleotides using Superscript III (Invitrogen). For s-RNYs detection by quantitative RT-PCR a stem-loop quantitative RT-PCR method was used according to Chen et al. (Chen, C., et al. (2005). Nucleic acids research 33, e179). Briefly, total RNA was isolated from cells, tissue, or immunoprecipitation using Trizol (Invitrogen) according to the manufacturer's instructions. […] This method allows the detection of the s-RNYs derived from only the 5′ end of the precursor by quantitative RT-PCR analysis, namely the s-RNY1-5p and s-RNY3-5p from mouse and s-RNY1-5p, s-RNY3-5p, and s-RNY4-5p from human. Quantitative RT-PCRs using Sybr Green and TaqMan (Invitrogen) for cel-miR-39 were performed on a StepONE system (Applied Biosystem). […]

The subject of data set [4] is s-RNY1-3p binding sites (BS) from KFL2 mRNA sequence in NIH-3T3 cells. The experiment in a line: Luciferase reporter assay with s-RNY1-3p binding sites from KLF2 mRNA. The format is cell-based. The following applies: PA treatment, FIG. 12C. The source says:
FIG. 12: (A) RNA duplex expected to result from base pairing of KFL2 mRNA with s-RNY1-3p. A-U and G-C base pairs are represented by solid lines; G-U wobble base pairs are represented by dotted lines, shown herein as SEQ ID NOS 58 and 59, respectively. (B) The sequence of the predicted target site of KFL2 mRNA from the indicated species, shown herein as SEQ ID NOS 60-63, respectively. The s-RNY1-3p seed complementary sequence is enclosed by a black box. Nucleotide conservation across the species is indicated by asterisks. (C) Relative luciferase activity of reporter constructs containing two either wt or mutant s-RNY1-3p binding sites (BS) from KFL2 mRNA sequence in NIH-3T3 cells transfected with either 2′-OMe-RNA antisense oligonucleotide to s-RNY1-3p or control. Cells were left unstimulated or stimulated with 0.25 mM of PA for 18 hr. The data were normalized using Renilla activity. Data are presented as mean and s.d. (n=4). Student's t-test: **P<0.01.
NIH-3T3 cells (80% confluence in 96-well plates) were transfected with Lipofectamine 2000® according to the manufacturer's instructions. Luciferase reporter assay was performed as previously described (Repetto, E., et al. (2012). PLoS genetics 8, e1002823).

For data set [5], the system named is p38, NF-κB, JNK. The experiment in a line: p38, NF-κB and JNK signaling activation in BMDMs. The format is cell-based, mouse. The following applies: time course, data not shown. On the procedure:
BMDMs and NIH-3T3 cells (ATCC) were transiently transfected for 48 hr with Lipofectamine 2000 (Invitrogen) according to the manufacturer's instructions. siRNAs were transfected at the final concentration of 24 nM, while 2′-OMe-RNA antisense oligonucleotides to s-RNYs (Eurogentec) were transfected at the final concentration of 100 nM. When required, cell lysates were incubated at room temperature with RNase A (10 mg/ml, Ambion) for 30 min. Three-hundred micrograms of protein was immunoprecipitated with Protein A-Dynabeads (Invitrogen)-coupled antibodies for 16 hr at 4° C. with rotation. Immunoprecipitates were washed four times with lysis buffer and resuspended in SDS protein loading buffer. Proteins were subjected to SDS-PAGE, electroblotted onto PVDF membranes, and probed with different antibodies as indicated.
Recombinant Ago2 and hnRNP A1 were purchased from Sino Biological Inc. and CliniSciences, respectively, while recombinant KSRP was a gift from Dr. R. Gherzi. Mouse monoclonal anti-hnRNP A1 (4B10), mouse monoclonal anti-c-Myc (9E10), goat anti-actin (1-19), and IκBα (H-4) antibodies were purchased from SantaCruz. Rabbit anti-La/SSB and anti-Ro60 (TROVE2) antibodies were purchased from GmbH. Anti-Ago2 antibody was purchased from Wako Chemicals while rabbit anti-KLF2 and anti-NOS2A antibodies were from Millipore. Anti-KSRP antibody was a gift from Dr. R. Gherzi. […]

Data set [6] relates to bone marrow-derived macrophages (BMDMs). Briefly: s-RNY expression in stimulated BMDMs, stem-loop quantitative RT-PCR. The format is cell-based, mouse. The following applies: in combination with thapsigargin (ER stress). How it is done:
Bone marrow cells were collected from femurs and tibias of ten-week-old male C57BL/6J mice by flushing with sterile medium as previously described (T. Ruggiero, M. et al (2009) FASEB J 23:2898-2908). To differentiate into macrophages, bone marrow cells (10^6) were plated in 10-cm plates in 7 ml of BMDM medium (DMEM supplemented with 20% low-endotoxin fetal bovine serum, 30% L929-cell conditioned medium, 1% I-glutamine, 1% Pen/Strep, 0.5% Na pyruvate, and 0.1% β-mercaptoethanol), and fed with 2.5 ml of fresh medium every 2 days for 7 days. Human primary macrophages were prepared from peripheral blood monocytes obtained from healthy donors (Jacquel, A., et al. (2012). Blood 119, 4527-4531) in agreement with the French legislation on human biomedical research. All participants provided written informed consent attesting they had received all the information they needed about the study and they agreed in accordance with appropriate national regulations.
RNA expression by quantitative RT-PCR was carried out by using standard procedures. Briefly, for mRNA, total RNA was isolated from cells using Trizol and cDNA was synthesized with a random hexonucleotides using Superscript III (Invitrogen). For s-RNYs detection by quantitative RT-PCR a stem-loop quantitative RT-PCR method was used according to Chen et al. (Chen, C., et al. (2005). Nucleic acids research 33, e179). Briefly, total RNA was isolated from cells, tissue, or immunoprecipitation using Trizol (Invitrogen) according to the manufacturer's instructions. RNA extraction from extracellular medium, blood plasma, and serum was performed as previously described (Turchinovich, A., et al (2011). Nucleic acids research 39, 7223-7233). Briefly, 1.2 ml of Trizol LS were added to 0.4 ml of blood plasma, serum or media. Then (i) 5 pg of synthetic miRNA-39 from Caenorhabditis elegans (cel-miR-39) were added as a spike-in control for purification efficiency; (ii) 1.2 μl of glycogen (10 mg/ml) were added to enhance the efficiency of RNA column binding. Purification of extracted total RNA was performed with miRNeasy columns (Qiagen) according to the manufacturer's instructions. RNA was eluted in 30 μl of RNase-free water. cDNA was synthesized using a hairpin long oligonucleotide. This method allows the detection of the s-RNYs derived from only the 5′ end of the precursor by quantitative RT-PCR analysis, namely the s-RNY1-5p and s-RNY3-5p from mouse and s-RNY1-5p, s-RNY3-5p, and s-RNY4-5p from human. Quantitative RT-PCRs using Sybr Green and TaqMan (Invitrogen) for cel-miR-39 were performed on a StepONE system (Applied Biosystem). The primer sequences are detailed in Table 1. […]

Data set [7] has as its system BMDMs. Briefly: Apoptosis assay in BMDMs (annexin V / Dapi, flow cytometry). The format is cell-based, mouse. As to conditions: FIGS. 13A and 13B. On the procedure: FIG. 13: Apoptotic data by fluorocytometry for BMDMs overexpressing s-RNYs, transfected with either 2′-OMe-RNA antisense oligonucleotides to s-RNYs or control. BMDMs were stimulated with 0.25 mM of PA for 18 hr (A), 0.25 μM thapsigargin (Tg) in combination with […] of oxLDL for 28 hr (B), or left unstimulated (C). Percentage of apoptotic and necrotic cells was determined by staining with Dapi and annexin […]. Data are presented as mean and s.d. (n=3). Apoptosis was assayed in BMDMs by staining with Alexa 488-conjugated annexin V and Dapi as previously described (Jacquel, A., et al., 2012. Blood 119(19): 4527-4531). The number of annexin V- and Dapi-positive cells was counted and expressed as a percent of the total number of cells from duplicate wells.

In data set [8] the test system is human primary macrophages. Briefly: Northern blot of s-RNYs in human primary macrophages. The format is cell-based. As to conditions: data not shown.

Where only a bound is given, the exact number is not on record here.

As for “5′-GUUGUAUUGUUUAGCGAUU-3′ (listed as RNA, chemistry not given here) [siAgo2]”, the “potential target mRNAs whose expression was Ago2 and s-RNYs dependent” value in data set [1] was “at least 20/32”.
Turning to `CCCCCCCCCCCCCCCC(=O)O` [PA, palmitic acid], in data set [2] (0.25 mM PA, FIG. 14A), the “time by which s-RNY expression was induced” value is not above 9 h. For the same compound, the s-RNY expression entry in data set [2] was “induced”. The “enrichment of s-RNYs in extracellular environment compared to control” value in data set [3] is recorded as approximately 100 fold. Besides, in data set [4], the “luciferase activity of the mutant reporter construct” value is given as “not affected” and the “luciferase activity of the reporter construct containing the wt sequence” value is given as “repressed”. In addition, in data set [5] (after 9 hr of treatment), the “NF-κB activation (IκBα degradation)” value is listed as “enhanced”. In addition, in data set [5] (starting by 9 hr), the “p38 activation (p38 phosphorylation)” value is recorded as “enhanced”. Moreover, in data set [6], the s-RNY expression result is “increased markedly”. Besides, the “apoptosis in macrophages treated with pro-atherogenic stimuli” value in data set [7] is listed as “apoptosis activation”.
As for `CN[C@@H]1C[C@H]2O[C@@](C)([C@@H]1OC)n1c3ccccc3c3c4c(c5c6ccccc6n2c5c31)C(=O)NC4` [STS, staurosporine], the “expression of s-RNYs (s-RNY1-5p, s-RNY1-3p, s-RNY3-5p and s-RNY4-5p)” value in data set [8] was “induced”.
Consider `CCCCC/C=C\C/C=C\CCCCCCCC(=O)O` [linoleic acid], for which the s-RNY expression result in data set [2] and in data set [6] was “did not induce” in each case.
As to `CCCCCCCC/C=C\CCCCCCCC(=O)O` [oleic acid], the s-RNY expression result in data set [2] and in data set [6] was “did not induce” throughout.
For `CCCCCCCCCCCCCCCCCC(=O)O` [stearic acid], the s-RNY expression result in data set [2] was “induced”; in data set [6], “increased markedly”.
With `C/C=C(/C)C(=O)O[C@H]1C(C)=C2[C@H]([C@@H]1OC(=O)CCCCCCC)[C@@](C)(OC(C)=O)C[C@H](OC(=O)CCC)[C@@]1(O)[C@H]2OC(=O)[C@@]1(C)O` [thapsigargin], the s-RNY expression entry in data set [2] is on record as “no effect”.
